Test results as given in article PMC9727733, “Liposomal Binuclear Ir(III)–Cu(II) Coordination Compounds with Phosphino-Fluoroquinolone Conjugates for Human Prostate Carcinoma Treatment” (Inorganic Chemistry, 2022).

Assays:
Assay type in all cases: cell-based
[1] = test system: DU-145 cell line (human prostate carcinoma); test: MTT cytotoxicity assay, DU145 cells
Method: (§1) The cytotoxicity of the four novel heteronuclear Ir^III–Cu^II complexes was assessed against four selected cancer cell lines: A549, MCF7, DU145, WM2664, and one normal HEK293T cell line in vitro (Table 3). IC50 values (concentration of a drug required to inhibit the growth of 50% of the cells) were assessed in two different approaches, i.e., after 24 or 24 + 48 h, using the 3-(4,5-dimethylthiazole)-2,5-diphenyltetrazolium bromide (MTT) method. Cancerous and noncancerous diseases have also been treated with the well-known drug cisplatin in the same concentration range as investigated complexes and are considered as a control. IC50 values have been determined from the plots of cell viability at various concentrations of each compound by matching appropriate dose–response curves and are presented in Table 3. […]
(§2) Bovine Serum (FBS). DU-145 cell line (human prostate carcinoma) and HEK293T cell line (human embryonic kidney) were cultured in minimum essential medium (MEM, Corning) with only 10% fetal bovine serum (FBS). Cultures were incubated at 37 °C under a humidified atmosphere containing 5% CO2.
(§3) Cells were passaged using a solution containing 0.05% trypsin and 0.5 mM EDTA. All media and other ingredients were purchased from ALAB, Poland.
(§4) Since most of the studied compounds are insoluble in aqueous media, therefore they needed to be pre-dissolved in DMSO for biological tests. Cytotoxicity was assessed by MTT assay performed according to the protocols described previously. (70) In brief, 1 × 10^4 cells per well, seeded in 96-well flat-bottom microtiter plate, were incubated with the tested complexes (1, 2, 3 and 4) at various concentrations for 24 h.
(§5) After that time, solutions of compounds were washed out, cells were washed thee time with PBS and fresh medium was applied. Each compound concentration was tested in five replicates and repeated at least three times. Determined values of IC50 (concentration of a drug required to inhibit the growth of 50% of the cells) are given as mean + S.D. (Standard Deviation). Furthermore, post-treatment survival assessment of the treated cells was analyzed under a fluorescence inverted microscope (Olympus IC51, Japan) with an excitation filter 470/20 nm. For this, cells were stained with two versatile fluorescence dyes: fluorescein […]
(§6) diacetate (FDA, 5 mg/mL) and propidium iodide (PI, 5 mg/mL) in standard conditions in the dark for 20 min. Before visualization dyes were removed and cells were washed with PBS twice. IC50 values were determined, after 72 h, from the plots of cell viability in the presence of various concentrations of each compound by matching dose–response curves. […]

[2] = test system: HEK293T cell line (human embryonic kidney); test: MTT cytotoxicity assay, HEK293T normal cells
Method: The cytotoxicity of the four novel heteronuclear Ir^III–Cu^II complexes was assessed against four selected cancer cell lines: A549, MCF7, DU145, WM2664, and one normal HEK293T cell line in vitro (Table 3). IC50 values (concentration of a drug required to inhibit the growth of 50% of the cells) were assessed in two different approaches, i.e., after 24 or 24 + 48 h, using the 3-(4,5-dimethylthiazole)-2,5-diphenyltetrazolium bromide (MTT) method. Cancerous and noncancerous diseases have also been treated with the well-known drug cisplatin in the same concentration range as investigated complexes and are considered as a control. IC50 values have been determined from the plots of cell viability at various concentrations of each compound by matching appropriate dose–response curves and are presented in Table 3.
as §2, with “(human skin (metastasis), morphology: epithelial, ATCC CRL-1676) were cultured in EMEM (EBSS) + 2mM Glutamine + 1% Non-Essential Amino Acids (NEAA) + 1% Sodium Pyruvate (NaP) + 10% Foetal Bovine” for “Bovine”
as §3, §4, §5, §6

[3] = test system: A549 cell line (human lung adenocarcinoma); test: MTT cytotoxicity assay, A549 cells; conditions: for IC50: MTT
Method: as §1
(§7) MCF7 cell line (human breast adenocarcinoma, morphology: epithelial-like, ATCC: HTB-22), A549 cell line (human lung adenocarcinoma, morphology: epithelial, ATCC: CCL-185) and HaCaT (human keratinocyte) were cultured in Dulbecco’s Modified Eagle’s Medium (DMEM, Corning) with phenol red, supplemented with 10% fetal bovine serum (FBS) and with 1% streptomycin/penicillin. WM266-4 cell line […]
as §2, with “(human skin (metastasis), morphology: epithelial, ATCC CRL-1676) were cultured in EMEM (EBSS) + 2mM Glutamine + 1% Non-Essential Amino Acids (NEAA) + 1% Sodium Pyruvate (NaP) + 10% Foetal Bovine” for “Bovine”
as §3, §4, §5, §6
(4) In brief, before imaging, A549 and Du145 cells were seeded on microscopic slides at a […]

[4] = test system: WM2664 cells (WM266-4, human skin metastasis); test: MTT cytotoxicity assay, WM2664 cells
Method: as §1, §7
as §2, with “(human skin (metastasis), morphology: epithelial, ATCC CRL-1676) were cultured in EMEM (EBSS) + 2mM Glutamine + 1% Non-Essential Amino Acids (NEAA) + 1% Sodium Pyruvate (NaP) + 10% Foetal Bovine” for “Bovine”
as §3, §4, §5, §6

[5] = test system: MCF7 cell line (human breast adenocarcinoma); test: MTT cytotoxicity assay, MCF7 cells
Method: as §1, §7
as §2, with “(human skin (metastasis), morphology: epithelial, ATCC CRL-1676) were cultured in EMEM (EBSS) + 2mM Glutamine + 1% Non-Essential Amino Acids (NEAA) + 1% Sodium Pyruvate (NaP) + 10% Foetal Bovine” for “Bovine”
as §3, §4, §5, §6

[6] = DU145, 72 h (24 + 48 h recovery)
[7] = A549, 72 h (24 + 48 h recovery)
[8] = WM2664, 72 h (24 + 48 h recovery)
[9] = MCF7, 72 h (24 + 48 h recovery)

Compound | IC50 ([1]; DU145, 24 h treatment) [µM] | IC50 [1, 6] [µM] | IC50 ([2]; 24 h treatment) [µM] | IC50 ([2]; 72 h (24 + 48 h recovery)) [µM] | IC50 ([3]; A549, 24 h treatment) [µM] | IC50 [3, 7] [µM] | times more effective than the reference drug cisplatin ([3]; A549, IC50 comparison) | selectivity index (SI – IC50 (normal cell line)/IC50 (cancer cell line)) ([3]; A549 cell line) | IC50 ([4]; WM2664, 24 h treatment) [µM] | IC50 [4, 8] [µM] | IC50 ([5]; MCF7, 24 h treatment) [µM] | IC50 [5, 9] [µM]
[Ir(η^5-Cp*)Cl2Psfx-Cu(phen)] [IrPsfxCu (4)] | 0.0101 ± 2.9e-06 | 53.6 ± 0.4 | 677 ± 9.2 | 777 ± 15.3 | 0.0181 ± 1.3e-06 | 0.6 ± 0.00029 | more than 100 | approximately 1290 | 0.0062 ± 2.4e-06 | 212 ± 10.5 | 10.5 ± 0.8 | > 1000
N.N.[Cl][Pt][Cl] [cisplatin (CDDP), cisplatin, reference compound] | 0.0683 ± 1.3e-06 | 65.5 ± 3.6 | 21 ± 1.8 | 10.3 ± 2.1 | 0.057 ± 1.3e-06 | 71.7 ± 3.7 |  |  | 2.6 ± 0.6 | 8.3 ± 0.4 | 51.9 ± 4.6 | 17.7 ± 8.6
[Ir(η^5-Cp*)Cl2Plfx-Cu(phen)](NO3)·1.3(H2O)·1.95(CH3OH) [IrPlfxCu (3)] | 0.0142 ± 2.4e-06 | 126 ± 4.4 | 776 ± 15.7 | 823 ± 12.3 | 0.0316 ± 7.6e-06 | 0.36 ± 0.00022 |  |  | 0.0101 ± 2.2e-06 | 229 ± 25.9 | 24.2 ± 7.2 | > 1000
[Ir(η^5-Cp*)Cl2Pnfx-Cu(phen)](NO3)·1.75(CH3OH)·0.75(H2O) [IrPnfxCu (2)] | 0.00108 ± 1.9e-08 | 123 ± 5.4 | 756.8 ± 5.7 | 857 ± 15.9 | 0.0112 ± 7.8e-06 | 0.0366 ± 2.8e-06 |  |  | 0.0099 ± 3.8e-06 | 155 ± 3.2 | 30 ± 0.7 | > 1000
[Ir(η^5-Cp*)Cl2Pcfx-Cu(phen)](NO3)·1.75(CH3OH)·0.75(H2O) [IrPcfxCu (1)] | 1.28e-06 | 126 ± 3.4 | 787 ± 11.2 | 887 ± 12.7 | 0.0355 ± 5.6e-06 | 0.000424 |  |  | 0.0052 ± 4.1e-06 | 137 ± 2.2 | 35.3 ± 6.5 | > 1000
O=[N+]([O-])[O-].O=[N+]([O-])[O-].[Cu+2].c1cnc2c(c1)ccc1cccnc12 [Cu(phen)(NO3)2, reference compound] | 412 ± 10.9 | 659 ± 14.5 | 81.8 ± 8.2 | 42.4 ± 9.1 | 537 ± 13.2 | 721 ± 15.1 |  |  | 933 ± 13.6 | 1110 ± 18.5 | 318 ± 12.2 | 426 ± 9.9
